Test results published in patent US4525360A, “Anti-psychotic phenylindene derivatives and acid addition salts thereof” (Kefalas A/S, priority 1982, dated 1985).
Counter-ions that a name gives are not always drawn. Like-named read-outs stand apart in the source and are kept apart here.

Columns and labels:
methylphenidate = experiment: Methylphenidate antagonism, mice i.p.; assay type: in vivo; details: Mus musculus, ip
Description: Methylphenidate antagonism (ED50 μmol/kg i.p.)
Perspex observation cages without bottom and lid, consisting of 5 sections each measuring 12×25×30 cm.
Two hours after injection of test substance, methylphenidate, 60 mg/kg, is injected s.c. After administration of methylphenidate the mice are placed in the observation cages, 2 in each cage, where they remain for exactly 1 hour. The cages are placed on corrugated paper, the corrugations facing upwards. It is examined whether the mice have been biting the corrugated paper or not.
The result is stated in fractions: 0/3, 1/3, 2/3 and 3/3 where 0, 1, 2 and 3 are the number of pairs which have not been biting on receipt of the dose in question.

[1] = Catalepsy wire mesh, rat, max.; assay type: in vivo, rats; details: po, read-out: Catalep. ED50 (po)
Description: Catalepsy wire mesh, rat, max. (ED50 μmol/kg p.o.)
A vertical wire netting (50 cm×49 cm). The meshes (openings) of the netting are square (1 cm×1 cm). The wire diameter is 2 mm.
The animals are labeled and used in groups of five. The test substance is administered orally (p.o.) at 4 dose levels selected from a fixed dose scale.
The animals are placed in the middle of the vertical wire netting 60, 120, 180, 240, 300 and 360 minutes after administration of the test compound. The animals are considered cataleptic when they remain immobile during a period of 15 seconds. This cataleptic reaction is designated +.
If the rats are "atonic" and passively slide down the wire mesh they are considered not cataleptic. If the animals climb up and down the wire mesh they are nor cataleptic. In both situations the designation - is used.

5-HT, rat fundus strip = experiment: 5-HT antagonism, rat fundus strip; details: read-out: 5HT rat-fundus-strip IC50
Description: 5-HT antagonism, rat fundus strip
5-hydroxytryptamine (5-HT).
Rats are killed by a blow on the head and exsanguinated. The stomach fundus is removed and carefully cleaned with Krebs solution at 30° C. The fundus is then stretched over a rounded end of a plastic rod about the thickness of a pencil, whereby the longitudinal direction of the muscle fibers is visible. The fundus is halved by carefully cutting in the central line and in the direction of these fibres. Along this incision two strips with a length of 15-25 mm and with width 1.5-2.5 mm are cut, one from each half of the fundus. The mucosa is then carefully removed. A thread is attached to each end of a strip. One thread is fixed to a pin in the bottom of the organ bath and the other thread is fixed to an isotonic transducer. The strip is kept under a tone of 1.5 to 2.0 g. […] Concentration response curves to 5-HT are obtained by adding 5-HT to the bath in increasing concentrations (0.1 ml of 10^-9 M resulting in 1.0×10^-11 M in the bath, 0.2 ml of 10^-9 M resulting in 3.0×10^-11 M, 0.1 ml of 10^-8 M resulting in about 1×10^-10 M, 0.2 ml of 10^-8 M resulting in about 3×10^-10 M--0.2 ml of 10^-4 resulting in about 3×10^-6 M in the bath). Each concentration of 5-HT is allowed to exert its maximal effect (1-10 min) before the next is added. When the maximal response is reached the tissue is carefully washed. The test substance is added to the bath for 10 min. before examining its effect on a new cumulative 5-HT concentration response curve. From the control concentration effect curve the Km for 5-HT is calculated.
The results are recorded as mean percentage inhibition.
Substrate concentration for 5-HT: 1.0×10^-9 M to 1.0×10^-8 M.
Michaelis-Menten constant for 5-HT is estimated each time.

[2] = Table 1, mice, i.p., 2 h before methylphenidate 60 mg/kg s.c., read-out: MePh Antag. ED50 (ip)
[3] = Table 1, rat, p.o., max. effect within 6 h
[4] = 10 min, Table 1, rat fundus strip in vitro, 10 min pre-exposure
[5] = Table 2, hydroxyindane intermediates, mice, i.p., read-out: MePh Antag. ED50
[6] = read-out: MePh Antag. ED50 (ip)

## CC(C)c1ccc2c(c1)C(C1CCN(CCO)CC1)=CC2c1ccc(F)cc1 (stereo not drawn) [Lu 20-109, 3-(4'-Fluorophenyl)-1-(1-hydroxyethyl-4-piperidyl)-6-(2-propyl)-1-indene, hydrochloride]
methylphenidate; [2]
  ED50: 1.1 µmol/kg

## Cc1ccc2c(c1)C(C1CCN(C)CC1)=CC2c1ccc(F)cc1 (stereo not drawn) [Lu 20-048, 3-(4'-Fluorophenyl)-6-methyl-1-(1-methyl-4-piperidyl)-1-indene, hydrobromide]
[1]; [3]
  ED50: 3.4 µmol/kg
methylphenidate; [2]
  ED50: 0.53 µmol/kg
5-HT, rat fundus strip; [4]
  IC50: 42 nM

## COc1ccc2c(c1)C(C1=CCN(CCO)CC1)=CC2c1ccc(F)cc1 (stereo not drawn) [Lu 20-021, 3-(4'-Fluorophenyl)-1-(1-hydroxyethyl-1,2,3,6-tetrahydropyrid-4-yl)-6-methoxy-1-indene, hydrobromide]
methylphenidate; [2]
  ED50: 11.6 µmol/kg
5-HT, rat fundus strip; [4]
  IC50: 500 nM

## Cc1ccc2c(c1)C(C1CCN(CCN3CCOC3=O)CC1)=CC2c1ccc(F)cc1 (stereo not drawn) [Lu 21-002, 3-(4'-Fluorophenyl)-6-methyl-1-(1-(2-oxazolidinon-3-ylethyl)-4-piperidyl)-1-indene, trifluoroacetate]
methylphenidate; [2]
  ED50: 1.7 µmol/kg

## CN1CCC(C2C=C(c3ccc(F)cc3)c3ccc(F)cc32)CC1 (stereo not drawn) [Lu 19-004, 6-Fluoro-3-(4'-fluorophenyl)-1-(1-methyl-4-piperidyl)-2-indene]
[1]; [3]
  ED50: 64.2 µmol/kg
methylphenidate; [2]
  ED50: 12.2 µmol/kg
5-HT, rat fundus strip; [4]
  IC50: 1100 nM

## Cc1ccc2c(c1)C(=C1CCN(CCO)CC1)C=C2c1ccc(F)cc1 [Lu 20-044, 3-(4'-Fluorophenyl)-1-(1-hydroxyethyl-4-piperidylidenyl)-6-methyl-2-indene,hydrobromide]
methylphenidate; [2]
  ED50: 5.1 µmol/kg
5-HT, rat fundus strip; [4]
  IC50: 280 nM

## Cc1ccc2c(c1)C(O)(C1=CCN(CCO)CC1)CC2c1ccc(F)cc1 (stereo not drawn) [Lu 19-154, 3-(4'-Fluorophenyl)-1-hydroxy-1-(1-hydroxyethyl-1,2,3,6-tetrahydropyrid-4-yl)-6-methylindane]
methylphenidate; [5]
  ED50: 6.2 µmol/kg
5-HT, rat fundus strip; Table 2, hydroxyindane intermediates, rat fundus strip in vitro
  IC50: 5.4 nM

## Cc1ccc2c(c1)C(C1=CCN(C)CC1)C=C2c1ccc(F)cc1 (stereo not drawn) [Lu 20-040, 3-(4'-Fluorophenyl)-6-methyl-1-(1-methyl-1,2,3,6-tetrahydropyrid-4-yl)-2-indene, hydrobromide]
[1]; [3]
  ED50: 5.5 µmol/kg
methylphenidate; [2]
  ED50: 0.7 µmol/kg
5-HT, rat fundus strip; [4]
  IC50: 62 nM

## O=C(CCCN1CCC(O)(c2ccc(Cl)cc2)CC1)c1ccc(F)cc1 [Haloperidol, reference compound]
[1]; Rattus norvegicus, 6 h
  ED50: 1 µmol/kg
methylphenidate; [6]
  ED50: 0.11 µmol/kg

## Cc1ccc2c(c1)C(C1CCN(CCN3CCNC3=O)CC1)=CC2c1ccc(F)cc1 (stereo not drawn) [Lu 20-064, 3-(4'-Fluorophenyl)-1-(1-(2-imidazolidinon-1-ylethyl)-4-piperidyl)-6-methyl-1-indene, oxalate]
[1]; [3]
  ED50: 6.7 µmol/kg
methylphenidate; [2]
  ED50: 0.86 µmol/kg
5-HT, rat fundus strip; [4]
  IC50: 22 nM

## Cc1ccc2c(c1)C(O)(C1=CCN(C)CC1)CC2c1ccc(F)cc1 (stereo not drawn) [Lu 19-131, 3-(4'-Fluorophenyl)-1-hydroxy-6-methyl-1-(1-methyl-1,2,3,6-tetrahydropyrid-4-yl)indane]
methylphenidate; [5]
  ED50: 14.8 µmol/kg

## O=C1NCCN1CCN1CCC(C2C=C(c3ccc(F)cc3)c3ccccc32)CC1 (stereo not drawn) [Lu 20-082, 3-(4'-Fluorophenyl)-1-(1-(2-imidazolidinon-1-ylethyl)-4-piperidyl)-2-indene]
methylphenidate; [2]
  ED50: 70.9 µmol/kg
5-HT, rat fundus strip; [4]
  IC50: 1500 nM

## CN1CC=C(C2=CC(c3ccc(F)cc3)c3ccc(F)cc32)CC1 (stereo not drawn) [Lu 20-025, 6-Fluoro-3-(4'-fluorophenyl)-1-(1-methyl-1,2,3,6-tetrahydropyrid-4-yl)-1-indene, hydrobromide]
[1]; [3]
  ED50: 5.3 µmol/kg
methylphenidate; [2]
  ED50: 7.6 µmol/kg
5-HT, rat fundus strip; [4]
  IC50: 240 nM

## CN1CCC(=C2C=C(c3ccc(F)cc3)c3ccc(F)cc32)CC1 [Lu 19-151, 6-Fluoro-3-(4'-fluorophenyl)-1-(1-methyl-4-piperidylidenyl)-2-indene, hydrochloride]
[1]; [3]
  ED50: 32.9 µmol/kg
methylphenidate; [2]
  ED50: 32.5 µmol/kg
5-HT, rat fundus strip; [4]
  IC50: 7500 nM

## CC(C)c1ccc2c(c1)C(C1=CCN(C)CC1)=CC2c1ccc(F)cc1 (stereo not drawn) [Lu 20-099, 3-(4'-Fluorophenyl)-1-(1-methyl-1,2,3,6-tetrahydropyrid-4-yl)-6-(2-propyl)-1-indene, hydrobromide]
methylphenidate; [2]
  ED50: 5.6 µmol/kg
5-HT, rat fundus strip; [4]
  IC50: 5000 nM

## Cc1ccc2c(c1)C(C1=CCN(CCO)CC1)C=C2c1ccc(F)cc1 (stereo not drawn) [Lu 20-038, 3-(4'-Fluorophenyl)-1-(1-hydroxyethyl-1,2,3,6-tetrahydropyrid-4-yl)-6-methyl-2-indene, hydrobromide]
[1]; [3]
  ED50: 3.8 µmol/kg
methylphenidate; [2]
  ED50: 0.89 µmol/kg
5-HT, rat fundus strip; [4]
  IC50: 28 nM

## CN1CC=C(C2=CC(c3ccc(F)cc3)c3ccc(Cl)cc32)CC1 (stereo not drawn) [Lu 20-079, 6-Chloro-3-(4'-fluorophenyl)-1-(1-methyl-1,2,3,6-tetrahydropyrid-4-yl)-1-indene, hydrobromide]
methylphenidate; [2]
  ED50: 3 µmol/kg

## Cc1ccc2c(c1)C(C1CCN(CCO)CC1)C=C2c1ccc(F)cc1 (stereo not drawn) [Lu 20-039, 3-(4'-Fluorophenyl)-1-(1-hydroxyethyl-4-piperidyl)-6-methyl-2-indene, hydrobromide]
[1]; [3]
  ED50: > 93 µmol/kg
methylphenidate; [2]
  ED50: 93 µmol/kg
5-HT, rat fundus strip; [4]
  IC50: 1900 nM

## OCCN1CCN(CCCN2c3ccccc3Sc3ccc(C(F)(F)F)cc32)CC1 [Fluphenazine, reference compound]
[1]; Rattus norvegicus, 6 h
  ED50: 0.55 µmol/kg
methylphenidate; [6]
  ED50: 0.07 µmol/kg

## CN(C)CCCN1c2ccccc2Sc2ccc(Cl)cc21 [Chlorpromazine, reference compound]
[1]; Rattus norvegicus, 6 h
  ED50: 70 µmol/kg
5-HT, rat fundus strip; Rattus norvegicus, 10 min
  IC50: > 5000 nM

## CN1CCC(C2=CC(c3ccc(F)cc3)c3ccc(F)cc32)CC1 (stereo not drawn) [Lu 20-028, 6-Fluoro-3-(4'-fluorophenyl)-1-(1-methyl-4-piperidyl)-1-indene, hydrobromide]
[1]; [3]
  ED50: 6.2 µmol/kg
methylphenidate; [2]
  ED50: 0.78 µmol/kg
5-HT, rat fundus strip; [4]
  IC50: 200 nM

## COc1ccc2c(c1)C(C1CCN(CCO)CC1)=CC2c1ccc(F)cc1 (stereo not drawn) [Lu 20-033, 3-(4'-Fluorophenyl)-1-(1-hydroxyethyl-4-piperidyl)-6-methoxy-1-indene, hydrobromide]
[1]; [3]
  ED50: 6.2 µmol/kg
methylphenidate; [2]
  ED50: 18.3 µmol/kg
5-HT, rat fundus strip; [4]
  IC50: 160 nM

## O=C1NCCN1CCN1CCC(C2=CC(c3ccc(F)cc3)c3ccc(F)cc32)CC1 (stereo not drawn) [Lu 20-087, 6-Fluoro-3-(4'-fluorophenyl)-1-(1-(2-imidazolidinon-1-ylethyl)-4-piperidyl)-1-indene, oxalate]
methylphenidate; [2]
  ED50: 10.8 µmol/kg

## OC1(C2CCNCC2)CC(c2ccc(F)cc2)c2ccc(F)cc21 (stereo not drawn) [Lu 19-139, 6-Fluoro-3-(4'-fluorophenyl)-1-hydroxy-1-(4-piperidyl)indane]
methylphenidate; [5]
  ED50: 15.6 µmol/kg

## O=C1NCCN1CCN1CCC(C2=CC(c3ccc(F)cc3)c3ccccc32)CC1 (stereo not drawn) [Lu 20-078, 3-(4'-Fluorophenyl)-1-(1-(2-imidazolidinon-1-ylethyl)-4-piperidyl)-1-indene, oxalate]
methylphenidate; [2]
  ED50: 16.5 µmol/kg
5-HT, rat fundus strip; [4]
  IC50: 120 nM

## Cc1ccc2c(c1)C(C1=CCN(C)CC1)=CC2c1ccc(F)cc1 (stereo not drawn) [Lu 20-041, 3-(4'-Fluorophenyl)-6-methyl-1-(1-methyl-1,2,3,6-tetrahydropyrid-4-yl)-1-indene, hydrobromide]
[1]; [3]
  ED50: 1.6 µmol/kg
methylphenidate; [2]
  ED50: 0.14 µmol/kg
5-HT, rat fundus strip; [4]
  IC50: 85 nM

## OCCN1CC=C(C2=CC(c3ccc(F)cc3)c3ccc(F)cc32)CC1 (stereo not drawn) [Lu 19-157, 6-Fluoro-3-(4'-fluorophenyl)-1-(1-hydroxyethyl-1,2,3,6-tetrahydropyrid-4-yl)-1-indene, hydrobromide]
[1]; [3]
  ED50: 55.3 µmol/kg
methylphenidate; [2]
  ED50: 15.8 µmol/kg
5-HT, rat fundus strip; [4]
  IC50: 330 nM
